Among the data in US20260295053A1, “COMPOUNDS FOR DEGRADATION AND INHIBITION OF KRAS (G12D) PROTEIN” (Shenzhen Ionova Life Science Co., Ltd., priority 2023, published 2026) are IC50 and DC50 values, retold here.

One experiment has as its system AsPC-1 cells. Kind of experiment: AsPC-1 cell proliferation assay (CellTiter Glo). The experiment is classed as cell-based. The settings on record: 6 days. On the procedure:
ASPC-1 and PK-59 cellular assays ASPC-1 (ATCC cat. CRL-1682) and PK-59 (Nanjing Cobioer, Cat. No. CBP61184) were used in KRAS cellular degradation, pERK inhibition and proliferation assays. The two cell lines were maintained following vendor's instructions. For monitoring KRAS (G12D) cellular degradation and pERK biomarker inhibition, cells were seeded into a 96-well plate with 22,000 and 16,000 cells/well for assays in ASPC-1 and PK-59, respectively. Cells were incubated at 37° C. with 5% CO2 and cell density was monitored until ^~90% confluency was reached. Compounds were serially diluted at a 1:3 ratio and dispensed into each well at final concentrations ranging from […] to 1.5 nM. After incubation for 24 hours, the culture media were removed and the cells were subjected to fixation, permeabilization and blocking (Intercept blocking buffer, Li-cor). For KRAS (G12D) degradation, the cells were treated with primary antibody (KRAS G12D antibody, Cell Signaling Technologies, Cat. No. CST14429) and for β-actin (β-actin mAb, Beyotime, Cat. No. AF-5001), and followed by secondary antibodies, Anti-rabbit IgG (H+L) (DyLight™ 800 4×PEG Conjugate) or IRDye® 680RD Goat anti-Mouse IgG. For pERK inhibition assay, cells were treated with primary antibodies for pERK (Phospho-p44/42 MAPK (Erk1/2) (Thr202/Tyr204) (D13.14.4E) XP® Rabbit mAb, Cell Signaling Technologies, Cat. No. CST-4370) and β-actin (β-actin mAb, Beyotime, Cat. No. AF-5001), and followed by secondary antibodies, Anti-rabbit IgG (H+L) (DyLight™ 800 4×PEG Conjugate) or IRDye® 680RD Goat anti-Mouse IgG. Fluorescence signals were read on Odyssey CLX instrument. For cell proliferation assays, cells were seeded into a 96-well plate at 3,500 and 800 cells/well for assays in ASPC-1 and PK-59, respectively. Cells were incubated at 37° C. with 5% CO2 for overnight. Compounds were serially diluted at a 1:3 ratio and dispensed into each well at final concentrations ranging from […] to 1.5 nM. After incubation for 6 days, cell viability reagent (CellTiter Glo, Promega, Cat. No. G7573) was added to each well and luminescence was recorded on Molecular Devices Spectramax iD3 instrument. IC50, half-maximal inhibitory concentration for pERK inhibition or cell proliferation, and DC50, half-maximal degradation concentration in KRAS (G12D) cellular degradation were determined by fitting the corresponding dose response curves using GraphPad Prism software.
Wherein “A” means the value <10 nM, “B” means 10 nM<the value <100 nM, “C” means 100 nM<the value <1000 nM, and “D” means the value >1000 nM, in which, the value means the value of DC50 or IC50. NT means not tested.

The next experiment deals with T1, KRAS (G12D) (Homo sapiens, UniProt P01116, G12D).
T1 construct: in-cell western with KRAS G12D antibody after 24 h
T1 sequence (P01116 1-188 isoform P01116-2 G12D): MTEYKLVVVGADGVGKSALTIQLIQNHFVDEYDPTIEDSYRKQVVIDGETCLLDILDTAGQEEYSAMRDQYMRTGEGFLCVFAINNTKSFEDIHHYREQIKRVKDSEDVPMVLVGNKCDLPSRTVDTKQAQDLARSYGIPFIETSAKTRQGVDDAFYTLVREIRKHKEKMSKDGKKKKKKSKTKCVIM
The experiment is described as follows: KRAS (G12D) cellular degradation assay in AsPC-1 cells. Format: cell-based. The conditions noted are these: 24 hours, antibody fluorescence (Odyssey CLX), DC50 half-maximal degradation concentration. In short, it runs like this:
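Read-outs were KRAS G12D immunofluorescence against β-actin after 24 h (DC50) and CellTiter Glo luminescence after 6 days (IC50). Compounds were titrated 1:3 from […] to 1.5 nM final on AsPC-1 cells at 37 °C, 5% CO2.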

A word on the IC50: it is the midpoint of a concentration-inhibition curve. Read a low IC50 as inhibition by little substance. As a reminder, the DC50 is the concentration at which degradation of the target reaches its halfway point. For the compound `CO[C@@H](C)COc1nc(N2C[C@@H]3C[C@H]2CN3)c2cc(C3CC3)c(-c3c(C)c(F)cc4[nH]ncc34)c(OCc3ccc(-c4cn([C@H](C(=O)N5C[C@H](O)C[C@H]5C(=O)N[C@H](C#Cc5ccc(F)cc5F)CO)C(C)C)nn4)cc3)c2n1` [Example 40, (2S,4R)-1-((2S)-2-(4-(4-(((4-((1S,4S)-2,5-diazabicyclo[2.2.1]heptan-2-yl)-6-cyclopropyl-7-(6-fluoro-5-methyl-1H-indazol-4-yl)-2-((S)-2-methoxypropoxy)quinazolin-8-yl)oxy)methyl)phenyl)-1H-1,2,3-triazol-1-yl)-3-methylbutanoyl)-N—((R)-4-(2,4-difluorophenyl)-1-hydroxybut-3-yn-2-yl)-4-hydroxypyrrolidine-2-carboxamide], the IC50 in the experiment on AsPC-1 cells (Homo sapiens, ASPC1, 144 h) fell in the range of 10 to 100 nM. Moreover, the DC50 at KRAS (G12D) lay within 10 to 100 nM.

`CO[C@@H](C)COc1nc(N2C[C@@H]3C[C@H]2CN3)c2cc(C3CC3)c(-c3c(C)c(F)cc4[nH]ncc34)c(OCc3ccc(-c4cn([C@H](C(=O)N5C[C@H](O)C[C@H]5C(=O)N[C@H](C#Cc5cccc6scnc56)CO)C(C)C)nn4)cc3)c2n1` [Example 80]: the IC50 in the experiment with AsPC-1 cells (Homo sapiens, ASPC1, 144 h) was 10 to 100 nM. At KRAS (G12D), this compound returned a DC50 of 10 to 100 nM.

Take `CCn1nccc1-c1ccc([C@H](CO)NC(=O)[C@@H]2C[C@@H](O)CN2C(=O)[C@H](C(C)C)n2cc(-c3ccc(COc4c(-c5c(C)c(F)cc6[nH]ncc56)c(C5CC5)cc5c(N6CCCNCC6)nc(OC[C@@H]6CCCO6)nc45)cc3)nn2)cc1` [Example 207, (2S,4R)-1-((2S)-2-(4-(4-(((6-cyclopropyl-4-(1,4-diazepan-1-yl)-7-(6-fluoro-5-methyl-1H-indazol-4-yl)-2-(((S)-tetrahydrofuran-2-yl)methoxy)quinazolin-8-yl)oxy)methyl)phenyl)-1H-1,2,3-triazol-1-yl)-3-methylbutanoyl)-N—((R)-1-(4-(1-ethyl-1H-pyrazol-5-yl)phenyl)-2-hydroxyethyl)-4-hydroxypyrrolidine-2-carboxamide]: in the experiment with AsPC-1 cells (Homo sapiens, ASPC1, 144 h), the IC50 is < 10 nM. At KRAS (G12D), the half-maximal degradation concentration (DC50) is < 10 nM.

Consider `CCn1nccc1-c1ccc(CNC(=O)[C@@H]2C[C@@H](O)CN2C(=O)[C@H](C(C)C)n2cc(-c3ccc(COc4c(-c5c(C)c(F)cc6[nH]ncc56)c(C5CC5)cc5c(N6C[C@@H]7C[C@H]6CN7)nc(OC[C@H](C)OC)nc45)cc3)nn2)c2c1CC2` [Example 36, (2S,4R)-1-((2S)-2-(4-(4-(((4-((1S,4S)-2,5-diazabicyclo[2.2.1]heptan-2-yl)-6-cyclopropyl-7-(6-fluoro-5-methyl-1H-indazol-4-yl)-2-((S)-2-methoxypropoxy)quinazolin-8-yl)oxy)methyl)phenyl)-1H-1,2,3-triazol-1-yl)-3-methylbutanoyl)-N-((5-(1-ethyl-1H-pyrazol-5-yl)bicyclo[4.2.0]octa-1(6),2,4-trien-2-yl)methyl)-4-hydroxypyrrolidine-2-carboxamide], for which the IC50 in the experiment on AsPC-1 cells (Homo sapiens, ASPC1, 144 h) was 10 to 100 nM. This compound had a DC50 at KRAS (G12D) of 10 to 100 nM.

As to `CCn1nccc1-c1ccc([C@@H](NC(=O)[C@@H]2C[C@@H](O)CN2C(=O)[C@H](C(C)C)n2cc(-c3ccc(COc4c(-c5c(C)c(F)cc6[nH]ncc56)c(C5CC5)cc5c(N(C)[C@H]6CCNC6)nc(OC[C@H](C)OC)nc45)cc3)nn2)[C@H](C)O)c2c1CC2` [Example 164, (2S,4R)-1-((2S)-2-(4-(4-(((6-cyclopropyl-7-(6-fluoro-5-methyl-1H-indazol-4-yl)-2-((S)-2-methoxypropoxy)-4-(methyl((S)-pyrrolidin-3-yl)amino)quinazolin-8-yl)oxy)methyl)phenyl)-1H-1,2,3-triazol-1-yl)-3-methylbutanoyl)-N-((1R,2S)-1-(5-(1-ethyl-1H-pyrazol-5-yl)bicyclo[4.2.0]octa-1(6),2,4-trien-2-yl)-2-hydroxypropyl)-4-hydroxypyrrolidine-2-carboxamide], in the experiment with AsPC-1 cells, the IC50 was < 10 nM. Further, the DC50 at KRAS (G12D) was < 10 nM.

The compound `CCn1nccc1-c1ccc([C@H](CO)NC(=O)[C@@H]2C[C@@H](O)CN2C(=O)[C@H](C(C)C)n2cc(-c3ccc(COc4c(-c5c(C)c(F)cc6[nH]ncc56)c(C5CC5)cc5c(N6CC7CCC(C6)N7)nc(OC[C@H](C)OC)nc45)cc3)nn2)cc1` (single isomer, unassigned) [Example 13A] gave an IC50 in the experiment on AsPC-1 cells (Homo sapiens, ASPC1, 144 h) of 10 to 100 nM. Besides, the DC50 at KRAS (G12D) lay in the range of 10 to 100 nM.

In the case of `CO[C@@H](C)COc1nc(N2C[C@@H]3C[C@H]2CN3)c2cc(C3CC3)c(-c3c(C)c(F)cc4[nH]ncc34)c(OCc3ccc(-c4cn([C@H](C(=O)N5C[C@H](O)C[C@H]5C(=O)N[C@H](C#Cc5cccc(F)c5Cl)CO)C(C)C)nn4)cc3)c2n1` [Example 98, (2S,4R)-1-((2S)-2-(4-(4-(((4-((1S,4S)-2,5-diazabicyclo[2.2.1]heptan-2-yl)-6-cyclopropyl-7-(6-fluoro-5-methyl-1H-indazol-4-yl)-2-((S)-2-methoxypropoxy)quinazolin-8-yl)oxy)methyl)phenyl)-1H-1,2,3-triazol-1-yl)-3-methylbutanoyl)-N—((R)-4-(2-chloro-3-fluorophenyl)-1-hydroxybut-3-yn-2-yl)-4-hydroxypyrrolidine-2-carboxamide], the IC50 with AsPC-1 cells (Homo sapiens, ASPC1, 144 h) was < 10 nM. This compound displayed a DC50 on KRAS (G12D) of 10 to 100 nM.

Turning to `CCn1nccc1-c1ccc([C@H](CO)NC(=O)[C@@H]2C[C@@H](O)CN2C(=O)[C@H](C(C)C)n2cc(-c3ccc(COc4c(-c5c(C)c(F)cc6[nH]ncc56)c(C5CC5)cc5c(N6C[C@@H]7C[C@H]6CN7)nc(OCC6(CC(F)F)CC6)nc45)cc3)nn2)cc1` [Example 62, (2S,4R)-1-((2S)-2-(4-(4-(((4-((1S,4S)-2,5-diazabicyclo[2.2.1]heptan-2-yl)-6-cyclopropyl-2-((1-(2,2-difluoroethyl)cyclopropyl)methoxy)-7-(6-fluoro-5-methyl-1H-indazol-4-yl)quinazolin-8-yl)oxy)methyl)phenyl)-1H-1,2,3-triazol-1-yl)-3-methylbutanoyl)-N—((R)-1-(4-(1-ethyl-1H-pyrazol-5-yl)phenyl)-2-hydroxyethyl)-4-hydroxypyrrolidine-2-carboxamide], the IC50 with AsPC-1 cells (Homo sapiens, ASPC1, 144 h) is < 10 nM. Moreover, the DC50 at KRAS (G12D) was < 10 nM.

On to `CCn1nccc1-c1ccc([C@@H](NC(=O)[C@@H]2C[C@@H](O)CN2C(=O)[C@H](C(C)C)n2cc(-c3ccc(COc4c(-c5c(C)c(F)cc6[nH]ncc56)c(C5CC5)cc5c(N(C)[C@H]6CCNC6)nc(O[C@H]6C[C@H](OC)C6)nc45)cc3)nn2)[C@H](C)O)c2c1CC2` [Example 173, (2S,4R)-1-((2S)-2-(4-(4-(((6-cyclopropyl-7-(6-fluoro-5-methyl-1H-indazol-4-yl)-2-((1r,3S)-3-methoxycyclobutoxy)-4-(methyl((S)-pyrrolidin-3-yl)amino)quinazolin-8-yl)oxy)methyl)phenyl)-1H-1,2,3-triazol-1-yl)-3-methylbutanoyl)-N-((1R,2S)-1-(5-(1-ethyl-1H-pyrazol-5-yl)bicyclo[4.2.0]octa-1(6),2,4-trien-2-yl)-2-hydroxypropyl)-4-hydroxypyrrolidine-2-carboxamide], for which, in the experiment with AsPC-1 cells (Homo sapiens, ASPC1, 144 h), the IC50 was < 10 nM. In addition, the DC50 at KRAS (G12D) is < 10 nM.

As for `CCn1nccc1-c1ccc([C@@H](NC(=O)[C@@H]2C[C@@H](O)CN2C(=O)[C@H](C(C)C)n2cc(-c3ccc(COc4c(-c5c(C)c(F)cc6[nH]ncc56)c(C5CC5)cc5c(N6C[C@@H]7C[C@H]6CN7)nc(OC6CCC7(CC6)COC7)nc45)cc3)nn2)[C@@H](C)O)cc1` [Example 130, (2S,4R)-1-((2S)-2-(4-(4-(((2-((2-oxaspiro[3.5]nonan-7-yl)oxy)-4-((1S,4S)-2,5-diazabicyclo[2.2.1]heptan-2-yl)-6-cyclopropyl-7-(6-fluoro-5-methyl-1H-indazol-4-yl)quinazolin-8-yl)oxy)methyl)phenyl)-1H-1,2,3-triazol-1-yl)-3-methylbutanoyl)-N-((1R,2R)-1-(4-(1-ethyl-1H-pyrazol-5-yl)phenyl)-2-hydroxypropyl)-4-hydroxypyrrolidine-2-carboxamide], the IC50 with AsPC-1 cells (Homo sapiens, ASPC1, 144 h) is < 10 nM. In addition, the DC50 at KRAS (G12D) is < 10 nM.
